Assay type in all cases: cell-based
The test system of assay [1] is Cryptococcus neoformans ATCC MYA-422. The assay can be described thus: microbe, parasite or virus in culture. Particulars: ATCC MYA-422, pH 7.4; read-out: Minimal Inhibitory Concentration, Cyrptococcus neoformans (ATCC MYA-422).
For a further assay, the system named is E. coli D21.
The subject of assay [2] is Candida albicans ATCC 10231. The assay can be described thus: microbe, parasite or virus in culture. The method, then: (§1) The antifungal activity of the lipopeptides was examined in sterile 96-well plates (Nunc F96 microtiter plates) in a final volume of 200 μL as follows: 100 µl of a suspension containing fungi at a concentration of 1×10^4 Colony-Forming Units (CFU)/ml in culture medium (RPMI 1640, 0.165 M MOPS with L-glutamine, without NaHCO3) at pH 7.4 or pH 5.5 (adjustment of the pH was done by diluted solutions of HCl and NaOH) were added to 100 μl of water containing the peptide in serial 2-fold dilutions in water. The fungi were incubated in the presence of the lipopeptides for 24-48 h at 35° C. in a Binder KB115 incubator under agitation. Growth inhibition was determined by measuring the absorbance at 620 nm with a Microplate autoreader E1309 (Bio-Tek Instruments). Antifungal activity is expressed as the minimal inhibitory concentration (MIC), the concentration at which 100% inhibition of fungi growth was observed after the incubation time mentioned above. The fungi used were: Aspergillus niger ATCC 9642, Candida albicans ATCC 10231 and Cryptococcus neoformans ATCC 66031. If not indicated otherwise, the fungi growth was detected at pH 7.4.

For assay [3], the system named is Pseudomonas aeruginosa ATCC 27853. The method, then:
(§2) The antibacterial activity of the lipopeptides was examined in sterile 96-well plates (Nunc F96 microtiter plates) in a final volume of 100 μl as follows: Aliquots (50 μl) of a suspension containing bacteria at concentration of 1×10^6 Colony-Forming Units (CFU)/ml in culture LB (Lauria broth) medium (pH 7.4 or pH 5.5) were added to 50 μl of water containing the lipopeptide in serial 2-fold dilutions in water. Adjustment of the pH was done by diluted solutions of HCl and NaOH Inhibition of growth was determined by measuring the absorbance at 600 nm with a Microplate autoreader E1309 (Bio-Tek Instruments), after an incubation time of 18-20 h at 37° C. Antibacterial activities were expressed as the minimal inhibitory concentration (MIC), the concentration at which 100% inhibition of growth was observed after 18-20 h of incubation. The bacteria used were: Escherichia coli ATCC 25922, Acinetobacter baumannii ATCC 19606, Pseudomonas aeruginosa ATCC 27853, Staphylococcus aureus ATCC 6538P, Enterococcus faecalis ATCC 29212, Enterobacter cloacae ATCC 49141. The antibacterial activity of lipopeptides was also examined against resistant bacteria: methicilin-resistant Staphylococcus aureus (MRSA) ATCC 700698 and vancomycin-resistant Enterococcus faecium (VRE) ATCC 700221. If not indicated otherwise, the bacterial growth was detected at pH 7.4.

Assay [4] has as its system Staphylococcus aureus ATCC 6538P. The method, then:
as §2

Assay [5] deals with Acinetobacter baumannii ATCC 19606. The method, then: as §2
Assay [6] has as its system Aspergillus fumigatus ATCC 26430. The assay can be described thus: microbe, parasite or virus in culture.
For assay [7], the system named is Cryptococcus neoformans ATCC 66031. The assay can be described thus: microbe, parasite or virus in culture. The procedure: as §1
Assay [8] has as its system Escherichia coli ATCC 25922. The method, then: as §2
Setting [9] is: ATCC 10231, pH 7.4, read-out: Minimal Inhibitory Concentration, Candida Albicans (ATCC 10231).
Setting [10] is: ATCC 26430, pH 7.4, read-out: Minimal Inhibitory Concentration, Aspergillus Fomigatus (ATCC 26430).

≈ marks a conversion by molar mass, not a printed value. Where two headings read alike, the source gives them in different places. Non-standard residues stand in square brackets, D forms with d. Residues, ends and D or L forms follow the SMILES beside them. *: point of attachment. Palmitoyl = CCCCCCCCCCCCCCCC(=O)*; Lauroyl = CCCCCCCCCCCC(=O)*

Consider `CCCCCCCCCCCCCCCC(=O)N[C@@H](CCCCN)C(N)=O` [PA-K], for which the MIC was 6.25 µM (≈ 2.4 µg/mL) in assay [1], greater than 100 µM in assay [2] (setting [9]) and greater than 100 µM in assay [6] (setting [10]). Further, the “Minimal Inhibitory Concentration, E. coli-D21” value with E. coli D21 (D21, pH 7.4) was greater than 100 µM. The “Minimal Inhibitory Concentration, P. aeruginosa ATCC 27853” value in assay [3] (ATCC 27853, pH 7.4) was greater than 100 µM. Also, the “Minimal Inhibitory Concentration, S. aureus ATCC 6538P” value in [4] (ATCC 6538, pH 7.4) is greater than 100 µM. For the same compound, the “Minimal Inhibitory Concentration, A. baumannii ATCC 19606” value in assay [5] (ATCC 19606, pH 7.4) is greater than 100 µM.

As to `CCCCCCCCCCCCCCCC(=O)N[C@@H](CCC(=O)O)C(=O)N[C@H](CCCCN)C(=O)N[C@@H](CCCCN)C(N)=O` [PA-EKK, Palmitoyl-Glu-D-Lys-Lys-NH2] (Palmitoyl-Glu-[dK]-Lys-NH2), the values for the MIC in [1], in assay [2] (setting [9]) and in [6] (setting [10]) were 12.5 µM (≈ 8.01 µg/mL), 25 µM (≈ 16 µg/mL) and 25 µM (≈ 16 µg/mL), respectively. Moreover, in the assay on E. coli D21 (D21, pH 7.4), the “Minimal Inhibitory Concentration, E. coli-D21” value was 100 µM. The “Minimal Inhibitory Concentration, P. aeruginosa ATCC 27853” value in assay [3] (ATCC 27853, pH 7.4) was greater than 100 µM. The “Minimal Inhibitory Concentration, S. aureus ATCC 6538P” value in [4] (ATCC 6538, pH 7.4) was 25 µM. In addition, the “Minimal Inhibitory Concentration, A. baumannii ATCC 19606” value in assay [5] (ATCC 19606, pH 7.4) is greater than 100 µM.

As for `CCCCCCCCCCCCCCCC(=O)N[C@@H](CCCCN)C(=O)N[C@@H](CCC(=O)O)C(N)=O` [PA-KE] (Palmitoyl-Lys-Glu-NH2), the MIC in assay [1], in assay [2] (setting [9]) and in [6] (setting [10]) was greater than 100 µM throughout. Also, in the assay on E. coli D21 (D21, pH 7.4), the “Minimal Inhibitory Concentration, E. coli-D21” value was greater than 100 µM. In assay [3] (ATCC 27853, pH 7.4), the “Minimal Inhibitory Concentration, P. aeruginosa ATCC 27853” value was greater than 100 µM. Further, the “Minimal Inhibitory Concentration, S. aureus ATCC 6538P” value in assay [4] (ATCC 6538, pH 7.4) was greater than 100 µM. Also, the “Minimal Inhibitory Concentration, A. baumannii ATCC 19606” value in [5] (ATCC 19606, pH 7.4) was greater than 100 µM.

In the case of `CCCCCCCCCCCCCCCC(=O)N[C@@H](CCCCN)C(=O)N[C@@H](CCCCN)C(=O)N[C@@H](CCCCN)C(=O)N[C@@H](CCCCN)C(N)=O` [PA-KKKK] (Palmitoyl-KKKK-NH2), the MIC in assay [1] worked out at 1.56 µM (≈ 1.2 µg/mL); in assay [2] (setting [9]), 25 µM (≈ 19.2 µg/mL); in assay [6] (setting [10]) it was 12.5 µM (≈ 9.6 µg/mL). Also, the “Minimal Inhibitory Concentration, E. coli-D21” value in the assay on E. coli D21 (D21, pH 7.4) came to 12.5 µM. In assay [3] (ATCC 27853, pH 7.4), the “Minimal Inhibitory Concentration, P. aeruginosa ATCC 27853” value came to 3.12 µM. For the same compound, the “Minimal Inhibitory Concentration, S. aureus ATCC 6538P” value in [4] (ATCC 6538, pH 7.4) was determined as 25 µM.

Consider `CCCCCCCCCCCC(=O)N[C@H](CC(C)C)C(=O)N[C@@H](CCCNC(=N)N)C(=O)N[C@@H](Cc1c[nH]cn1)C(=O)N[C@H](CC(C)C)C(=O)N[C@H](CC(C)C)C(=O)N[C@@H](CCCNC(=N)N)C(=O)N[C@@H](Cc1c[nH]cn1)C(=O)N[C@H](CC(C)C)C(=O)N[C@H](CC(C)C)C(=O)N[C@@H](CCCNC(=N)N)C(=O)N[C@@H](Cc1c[nH]cn1)C(=O)N[C@H](CC(C)C)C(N)=O` [lipopeptide 27, (CH3-(CH2)10-CO-)-D-Leu-Arg-His-D-Leu-D-Leu-Arg-His-D-Leu-D-Leu-Arg-His-D-Leu-NH2] (Lauroyl-[dL]RH[dL][dL]RH[dL][dL]RH[dL]-NH2), for which the “Minimal inhibitory concentrations, E. Coli D21” value in the assay on E. coli D21 (D21, pH 5.5) turned out to be 100 µM (≈ 176 µg/mL); with E. coli D21 (D21, pH 7.4), 100 µM (≈ 176 µg/mL). Also, the MIC in assay [7] (ATCC 66031, pH 5.5, read-out: Minimal inhibitory concentrations, C. Neofor. With serum) is 25 µM (≈ 44 µg/mL); in [7] (ATCC 66031, pH 5.5, read-out: Minimal inhibitory concentrations, C. Neofor. Without serum), 1.56 µM (≈ 2.74 µg/mL); in assay [7] (ATCC 66031, pH 7.4, read-out: Minimal inhibitory concentrations, C. Neofor. With serum) it was 25 µM (≈ 44 µg/mL); in assay [7] (ATCC 66031, pH 7.4, read-out: Minimal inhibitory concentrations, C. Neofor. Without serum), 3.125 µM (≈ 5.49 µg/mL); in [2] (ATCC 10231, pH 5.5, read-out: Minimal inhibitory concentrations, C. Albicans With serum), greater than 100 µM; in assay [2] (ATCC 10231, pH 5.5, read-out: Minimal inhibitory concentrations, C. Albicans Without serum) it was 25 µM (≈ 44 µg/mL). Further, the MIC in assay [2] (ATCC 10231, pH 7.4, read-out: Minimal inhibitory concentrations, C. Albicans With serum) is listed as greater than 100 µM; in assay [2] (ATCC 10231, pH 7.4, read-out: Minimal inhibitory concentrations, C. Albicans Without serum) it was 12.5 µM (≈ 22 µg/mL); in assay [6] (ATCC 26430, pH 5.5, read-out: Minimal inhibitory concentrations, A. Fumig. With serum), 100 µM (≈ 176 µg/mL); in assay [6] (ATCC 26430, pH 5.5, read-out: Minimal inhibitory concentrations, A. Fumig. Without serum), 6.25 µM (≈ 11 µg/mL); in assay [6] (ATCC 26430, pH 7.4, read-out: Minimal inhibitory concentrations, A. Fumig. With serum) it was 100 µM (≈ 176 µg/mL); in assay [6] (ATCC 26430, pH 7.4, read-out: Minimal inhibitory concentrations, A. Fumig. Without serum) it was 25 µM (≈ 44 µg/mL). Moreover, the “Minimal inhibitory concentrations, E. Coli ATCC 25922” value in [8] (ATCC 25922, pH 5.5) came to 100 µM (≈ 176 µg/mL); in assay [8] (ATCC 25922, pH 7.4) it was 100 µM (≈ 176 µg/mL). Further, the “Minimal inhibitory concentrations, P. Aeruginosa ATCC 27853” value in assay [3] (ATCC 27853, pH 5.5) was determined as 100 µM (≈ 176 µg/mL); in assay [3] (ATCC 27853, pH 7.4) it was 100 µM (≈ 176 µg/mL). For the same compound, the “Minimal inhibitory concentrations, S. aureus II ATCC 6538P” value in [4] (ATCC 6538, pH 5.5) worked out at 100 µM (≈ 176 µg/mL); in assay [4] (ATCC 6538, pH 7.4), 100 µM (≈ 176 µg/mL). For the same compound, the “Minimal inhibitory concentrations, A. baumannii ATCC 19606” value was greater than 100 µM in assay [5] (ATCC 19606, pH 5.5) and 100 µM (≈ 176 µg/mL) in assay [5] (ATCC 19606, pH 7.4).

These data come from patent US8445636B2, “Antimicrobial and anticancer lipopeptides” (Yeda Research & Development Co. Ltd., priority 2003, dated 2013).
